From BindingDB's records for PubMed 39369482 (Univ. Lille)

Biological target: Insulin-regulated aminopeptidase (Homo sapiens)
Assay: Inhibition of recombinant human IRAP using L-AMC as substrate preincubated for 30 mins followed by substrate addition and measured after 1 hr by fluorescence based assay

IC50	Compound
13.3 µM	CN1C(=O)SC(Cc2ccc(C(=O)O)cc2)C1=O (configuration not stated)
14.4 µM	O=C(O)c1cccc(S(=O)(=O)N2CCCCC2)c1
88.1 µM	O=C(O)c1cccc(S(=O)(=O)N2CCCC2)c1
40.9 µM	O=C1N=C(S)SC1=Cc1ccc(C(=O)O)cc1
16.3 µM	O=C(Cc1ccc(S(=O)(=O)N2CCCCC2)s1)NO
15.1 µM	O=C(O)c1cccc(S(=O)(=O)N2CCC(F)CC2)c1
60.3 µM	O=C(NO)c1ccc(S(=O)(=O)N2CCCCC2)s1
